Measured values: PubChem BioAssay (NCI)
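Step 1: Grow cells in 96-well plates. Step 2: Expose to compound for 48 hours at 5 concentrations. Step 3: Interpolate endpoints linearly; if unreached, use highest concentration. TGI denotes the concentration required for complete inhibition of growth.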

Assays:
Test in all cases: NCI-60 cell line screen, 48 h
[1] = tested on: 786-0 renal
[2] = tested on: A498 renal
[3] = tested on: A549 NSCLC
[4] = tested on: ACHN renal
[5] = tested on: BT-549 breast
[6] = tested on: CAKI-1 renal
[7] = tested on: CCRF-CEM leukemia
[8] = tested on: COLO 205 colon
[9] = tested on: DU-145 prostate
[10] = tested on: EKVX NSCLC
[11] = tested on: HCC-2998 colon
[12] = tested on: HCT-116 colon
[13] = tested on: HCT-15 colon
[14] = tested on: HL-60(TB) leukemia
[15] = tested on: HOP-62 NSCLC
[16] = tested on: HOP-92 NSCLC
[17] = tested on: HS 578T breast
[18] = tested on: HT29 colon
[19] = tested on: IGROV1 ovarian
[20] = tested on: K-562 leukemia
[21] = tested on: KM12 colon
[22] = tested on: LOX IMVI melanoma
[23] = tested on: M14 melanoma
[24] = tested on: MALME-3M melanoma
[25] = tested on: MCF7 breast
[26] = tested on: MDA-MB-231 breast
[27] = tested on: MDA-MB-435
[28] = tested on: MDA-N
[29] = tested on: MOLT-4 leukemia
[30] = tested on: NCI-H226 lung
[31] = tested on: NCI-H23 lung
[32] = tested on: NCI-H460 lung
[33] = tested on: NCI-H522 lung
[34] = tested on: NCI/ADR-RES ovarian
[35] = tested on: OVCAR-3 ovarian
[36] = tested on: OVCAR-4 ovarian
[37] = tested on: OVCAR-5 ovarian
[38] = tested on: OVCAR-8 ovarian
[39] = tested on: PC-3 prostate
[40] = tested on: RPMI-8226 leukemia
[41] = tested on: RXF 393 renal
[42] = tested on: SF-268 CNS
[43] = tested on: SF-295 CNS
[44] = tested on: SF-539 CNS
[45] = tested on: SK-MEL-2 melanoma
[46] = tested on: SK-MEL-28 melanoma
[47] = tested on: SK-MEL-5 melanoma
[48] = tested on: SK-OV-3 ovarian
[49] = tested on: SN12C renal
[50] = tested on: SNB-19 CNS
[51] = tested on: SNB-75 CNS
[52] = tested on: SR leukemia
[53] = tested on: SW-620 colon
[54] = tested on: T-47D breast
[55] = tested on: TK-10 renal
[56] = tested on: U251 CNS
[57] = tested on: UACC-257 melanoma
[58] = tested on: UACC-62 melanoma
[59] = tested on: UO-31 renal

Question: `COc1cccc(C2c3cc4c(cc3OC(N3CCOCC3)C2C)OCO4)c1O` (centres undefined) was tested. Which TGI [1] did it give?
Answer: The TGI was 53.6 µM.

Question: And the TGI [2]?
Answer: The TGI was 20.8 µM.

Question: What about the TGI [3] of the same molecule?
Answer: Its TGI is 66.5 µM.

Question: And the TGI [4]?
Answer: The TGI was 72 µM.

Question: And the TGI [5]?
Answer: The TGI was 76.1 µM.

Question: What about the TGI [6] of the same molecule?
Answer: The TGI was 18.6 µM.

Question: What about the TGI [7] of the same molecule?
Answer: The TGI was 35.3 µM.

Question: What about the TGI [8] of the same molecule?
Answer: The TGI was 22.7 µM.

Question: What about the TGI [9] of the same molecule?
Answer: Its TGI is 26.6 µM.

Question: And the TGI [10]?
Answer: The TGI was 98.9 µM.

Question: What about the TGI [11] of the same molecule?
Answer: Its TGI is 21.9 µM.

Question: What about the TGI [12] of the same molecule?
Answer: Its TGI is 16.6 µM.

Question: And the TGI [13]?
Answer: The TGI was 27.9 µM.

Question: What about the TGI [14] of the same molecule?
Answer: Its TGI is 6.69 µM.

Question: What about the TGI [15] of the same molecule?
Answer: The TGI was 26 µM.

Question: And the TGI [16]?
Answer: Its TGI is 71.4 µM.

Question: What about the TGI [17] of the same molecule?
Answer: The TGI was 6.39 µM.

Question: And the TGI [18]?
Answer: The TGI was 28.8 µM.

Question: What about the TGI [19] of the same molecule?
Answer: Its TGI is 53.7 µM.

Question: What about the TGI [20] of the same molecule?
Answer: The TGI was 38.1 µM.

Question: And the TGI [21]?
Answer: Its TGI is 46.9 µM.

Question: What about the TGI [22] of the same molecule?
Answer: Its TGI is 25 µM.

Question: And the TGI [23]?
Answer: Its TGI is 25 µM.

Question: What about the TGI [24] of the same molecule?
Answer: Its TGI is over 78.6 µM.

Question: What about the TGI [25] of the same molecule?
Answer: The TGI was over 44.2 µM.

Question: And the TGI [26]?
Answer: Its TGI is 47.5 µM.

Question: What about the TGI [27] of the same molecule?
Answer: Its TGI is 6.57 µM.

Question: What about the TGI [28] of the same molecule?
Answer: Its TGI is 4.58 µM.

Question: What about the TGI [29] of the same molecule?
Answer: The TGI was 42.2 µM.

Question: And the TGI [30]?
Answer: Its TGI is 20.9 µM.

Question: And the TGI [31]?
Answer: The TGI was 52.6 µM.

Question: And the TGI [32]?
Answer: The TGI was 20.4 µM.

Question: What about the TGI [33] of the same molecule?
Answer: The TGI was 8.39 µM.

Question: And the TGI [34]?
Answer: The TGI was 19.1 µM.

Question: And the TGI [35]?
Answer: The TGI was 30.8 µM.

Question: What about the TGI [36] of the same molecule?
Answer: Its TGI is over 100 µM.

Question: And the TGI [37]?
Answer: The TGI was 60 µM.

Question: And the TGI [38]?
Answer: Its TGI is 60.1 µM.

Question: What about the TGI [39] of the same molecule?
Answer: The TGI was over 58.6 µM.

Question: And the TGI [40]?
Answer: Its TGI is 19.8 µM.

Question: And the TGI [41]?
Answer: Its TGI is 9.43 µM.

Question: And the TGI [42]?
Answer: The TGI was over 79.1 µM.

Question: What about the TGI [43] of the same molecule?
Answer: Its TGI is 42.9 µM.

Question: And the TGI [44]?
Answer: Its TGI is 9.66 µM.

Question: What about the TGI [45] of the same molecule?
Answer: Its TGI is 40.7 µM.

Question: What about the TGI [46] of the same molecule?
Answer: Its TGI is over 61.8 µM.

Question: What about the TGI [47] of the same molecule?
Answer: The TGI was 18.4 µM.

Question: What about the TGI [48] of the same molecule?
Answer: The TGI was 75.6 µM.

Question: And the TGI [49]?
Answer: Its TGI is 60.5 µM.

Question: And the TGI [50]?
Answer: Its TGI is 36.4 µM.

Question: And the TGI [51]?
Answer: Its TGI is over 100 µM.

Question: And the TGI [52]?
Answer: The TGI was 30.2 µM.

Question: What about the TGI [53] of the same molecule?
Answer: The TGI was over 75.2 µM.

Question: What about the TGI [54] of the same molecule?
Answer: The TGI was 36.4 µM.

Question: What about the TGI [55] of the same molecule?
Answer: Its TGI is 83.6 µM.

Question: What about the TGI [56] of the same molecule?
Answer: Its TGI is 12.7 µM.

Question: And the TGI [57]?
Answer: Its TGI is over 83.3 µM.

Question: What about the TGI [58] of the same molecule?
Answer: Its TGI is 40.2 µM.

Question: And the TGI [59]?
Answer: The TGI was 54.3 µM.
